{"source": "patent US20240342330A1", "about": "“METHOD FOR THE PREPARATION OF SURFACES, PARTICULARLY OF CARDIAC PROSTHESIS” (BIOCOMPATIBILITY INNOVATION S.R.L., priority 2021, published 2024)", "test_in_all_cases": "Bactericidal activity suspension assay", "type_in_all_cases": "cell-based", "settings_in_all_cases": "24 hours incubation", "key": {"[1]": {"test_system": "Salmonella enterica typhimurium ATCC 14028"}, "[2]": {"test_system": "Candida albicans ATCC 10231"}, "[3]": {"test_system": "Listeria monocytogenes ATCC 19111"}, "[4]": {"test_system": "Staphylococcus aureus ATCC 6538"}, "[5]": {"test_system": "Aspergillus brasiliensis ATCC 16404"}, "[6]": {"test_system": "Mycobacterium chelonae ATCC 35752"}, "[7]": {"test_system": "Pseudomonas aeruginosa ATCC 9027"}, "[8]": {"test_system": "Streptococcus viridans ATCC 6249"}, "[9]": {"test_system": "Enterococcus faecalis ATCC 29212"}}}
{"smiles": "CCO", "note": "[ETHANOL, ethanol]", "values": [{"measurement": "BACTERICIDAL ACTIVITY %", "setting": "[1]", "value": 90, "unit": "%"}, {"measurement": "BACTERICIDAL ACTIVITY %", "setting": "[2]", "value": 99.9, "unit": "%"}, {"measurement": "BACTERICIDAL ACTIVITY %", "setting": "[3]", "value": 0, "unit": "%"}, {"measurement": "BACTERICIDAL ACTIVITY %", "setting": "[4]", "value": 99, "unit": "%"}, {"measurement": "BACTERICIDAL ACTIVITY %", "setting": "[5]", "value": 90, "unit": "%"}, {"measurement": "BACTERICIDAL ACTIVITY %", "setting": "[6]", "value": 99, "unit": "%"}, {"measurement": "BACTERICIDAL ACTIVITY %", "setting": "[7]", "value": 99.99, "unit": "%"}, {"measurement": "BACTERICIDAL ACTIVITY %", "setting": "[8]", "value": 90, "unit": "%"}, {"measurement": "BACTERICIDAL ACTIVITY %", "setting": "[9]", "value": 0, "unit": "%"}]}
